Ends that are not written are not given here.

Data on eight substances can be found in patent publication US20150352197A1, “PEPTIDE” (Apitope International NV, priority 2013, published 2015).

In one assay the target is T1, HLA-DRB1*1501 (Homo sapiens, UniProt P01903+P01911).
T1 construct: human cell line expressing HLA-DRB1*1501; host or cells: MGAR cells (human cell line), fixed with paraformaldehyde or fresh
The assay is described as follows: Antigen processing independent presentation system: fixed MGAR cells plus peptide-specific T cell hybridomas, IL-2 ELISA. Format: cell-based. The procedure:
100 μl of hybridoma cells were cultured with 5×10^4 MGAR cells (human cell line expressing HLA-DRB1*1501, Health Protection Agency Culture Collections, Salisbury, UK) in wells of a flat bottom 96-well plate. 50 μl complete RPMI-10% FCS containing a long peptide at 10 μg/ml or the same volume of DMSO (diluent of the peptide) was added to the wells. After 48 h, 120 μl of supernatant was removed and a mouse IL-2 ELISA (Enzyme-linked immunosorbent assay) performed. Clones that produce IL-2 recognise the antigen used. The remaining supernatants were frozen at −20° C.
96 well plates (Immunosorb 96 well, Nunc, Roskilde, Denmark) were coated with 50 μl/well purified rat anti-mouse IL-2 capture Ab (BD Biosciences, Oxford, UK), diluted 1:250 in carbonate buffer (3.56 g Na2CO3 (Sigma-Aldrich, Saint Louis, Mass.), 8.4 g NaHCO3 (Fisher Scientific, Loughborough, UK), 1 L elgastat water; pH 9.5) and incubated overnight at 4° C. After 2 washes in PBS-Tween (1 L 10× PBS, 9 L distilled water, 0.5 ml Tween (Sigma-Aldrich, Saint Louis, Mass.)), […] of PBS-10% FCS were added and incubated at RT for 1 hour. After 3 washes in PBS-Tween, 50 μl of supernatant or IL-2 standard (BD Biosciences, Oxford, UK) dilutions (in PBS-10% FCS) were added to the wells and incubated 2 h at RT. After 4 washes in PBS-Tween (Sigma-Aldrich, Saint Louis, Mass.), 50 μl/well of biotin rat anti-mouse IL2 (BD Biosciences, Oxford, UK) diluted 1:1000 in 10% FCS/PBS was added and incubated for 1 h at RT. After 4 washes, 50 μl/well extravidin peroxidase (Sigma-Aldrich, Saint Louis, Mass.) diluted 1:1000 in PBS was added and incubated 30 min at RT. After 4 washes, […] of substrate solution* was added and incubated at RT until a clear colour change was seen. The reaction was stopped using 50 μl/well 2M H2SO4 (BDH, Poole, UK) and plates were read at 450 nm (550 nm ref) with an ELISA reader (SpectraMax Pro, Molecular Device, Sunnyvale, Calif.). *Substrate solution: 10 ml phosphate-citrate buffer 0.1M (5.14 ml 0.2M Na2HPO4 (BDH, Poole, UK), 4.86 ml 0.1M citrate (Sigma), 10 ml elgastat water), 0.1 ml of TMB (defrost 3,3′,5,5′-Tetramethylbenzidine at 10 mg/ml in DMSO, Sigma-Aldrich, Saint Louis, Mass.), 6 μl of hydrogen peroxide (Sigma-Aldrich, Saint Louis, Mass.).
The specific clones were then tested for their responses to the 15-mer peptides (POP-1 to POP-12) with fixed or not fixed MGAR cells. For this purpose, 1×10^5 cells from the individual clones are cultured with 5×10^4 fixed or fresh MGAR cells in a 96-well flat bottom plate. […] After 48 h in culture, 120 μl of supernatant was harvested and analysed by ELISA to assess IL-2 production.
In general terms: ELISA stands for enzyme-linked immunosorbent assay.

Assay [1] relates to HLA-DRB1*1501 transgenic mice. The assay is described as follows: EAE induction by priming with long peptide. The assay is classed as in vivo. As to conditions: long peptides, HLA-DRB1*1501 mice, FIG. 1. Here is the method:
For each peptide, in silico studies were carried out to predict DR2 (HLA-DRB1*1501) binding capacity, and in vitro (proliferation assay) and in vivo (EAE induction) studies were carried out to investigate response.
HLA-DRB1*1501 transgenic mice were injected with 100 μl containing 100 μg of long peptide in PBS (Lonza, Verviers, Belgium) or PBS alone, and with Complete Freund Adjuvant (CFA; BD Difco, Oxford, UK) with 4 mg/ml Mycobacterium tuberculosis (MTb, BD Difco, Oxford, UK) subcutaneously at the base of the tail. For EAE study, the mice were injected with 200 ng of pertussis toxin at the same time as the priming and 2 days after. The mice were then followed, weight and scored for disease every day.

Assay [2] deals with splenocytes and lymph node cells. Put plainly: In vitro proliferation assay for immunogenicity of the long peptides. Format: cell-based, HLA-DRB1*1501 transgenic mice. Particulars: HLA-DRB1*1501 mice, FIG. 1.
The test system of assay [3] is splenocytes (SPL) and lymph node cells (LNC). Put plainly: Ex vivo tolerance assay: apitope pre-treatment, priming with long peptide, then recall proliferation and cytokine production. Format: in vivo, HLA-DRB1*1501 mice.
Where [4] appears, read: 15-mers spanning HEAL-26, HEAL-26 specific hybridomas from DR2 mice.
Where [5] appears, read: LNC (lymph node) of pre-treated mice.
Setting [6] is: SPL (spleen) of pre-treated mice.

Take “EKLIETYFSKNYQDY [POP-8, 15-mer overlapping peptide spanning HEAL-26]”: the identification as apitope entry with HLA-DRB1*1501 (setting [4]) was “identified as apitopes”.
As for “GVLPWNAFPGKVCGSNLLSICKTAEFQM-NH2 (cysteine pairing not given here) [GVLP-28, long peptide from a hydrophilic domain of PLP, residues 207-234]”, in assay [1], the “response in the in vivo study (EAE induction)” value (“response in the in vivo study” below) was “respond”. Besides, the “response in the in vitro study (proliferation assay)” value (“response in the in vitro study” for short) in assay [2] is recorded as “respond”. Also, in assay [3] (LNC of pre-treated mice), the IL-17 production entry is given as “significant inhibition” and the “stimulation index of LNC proliferation” value is “decrease”.
Turning to “HEALTGTEKLIETYFSKNYQDYEYLI-NH2 [HEAL-26, long peptide from a hydrophilic domain of PLP, residues 36-61]”, the “response in the in vivo study” value in assay [1] was “respond”. Besides, the “response in the in vitro study” value in assay [2] is recorded as “respond”. In addition, the “proliferation (3H-thymidine incorporation)” value in assay [3] (setting [5]) and in assay [3] (setting [6]) was “decrease” throughout. In addition, the IL-17 production result in assay [3] (LNC of pre-treated mice) and in assay [3] (SPL of pre-treated mice) was “decrease” in each case. Further, the IL-5 production result in assay [3] (pre-treated mice, cell population not specified) is “increase”.
Consider “LTGTEKLIETYFSKN [POP-4, 15-mer overlapping peptide spanning HEAL-26]”, for which, in the assay with HLA-DRB1*1501 (setting [4]), the identification as apitope result is “identified as apitopes”. Also, the “proliferation (3H-thymidine incorporation)” value in assay [3] (setting [5]) was “inhibition”. In assay [3] (LNC of pre-treated mice), the IFN-γ production entry is on record as “significant decrease”, the IL-17 production result was “significant decrease” and the TNF-α production result was “significant decrease”. Also, the “proliferation (3H-thymidine incorporation)” value in assay [3] (setting [6]) is recorded as “inhibition”. In assay [3] (SPL of pre-treated mice), the IFN-γ production result was “significant decrease”, the IL-17 production entry is given as “significant decrease” and the TNF-α production entry is “significant decrease”.
For “TEKLIETYFSKNYQD [POP-7, 15-mer overlapping peptide spanning HEAL-26]”, in the assay with HLA-DRB1*1501 (setting [4]), the identification as apitope result was “identified as apitopes”.
Regarding “TTCQSIAFPSKTSAS [POP-15, 15-mer overlapping peptide spanning TWTT-28]”, in assay [3] (setting [5]), the “proliferation (3H-thymidine incorporation)” value is recorded as “significant inhibition”. In assay [3] (LNC of pre-treated mice), the GM-CSF production result is given as “significant inhibition”, the IFN-γ production result is recorded as “significant inhibition”, the IL-17 production entry is “significant inhibition” and the cytokine production result is listed as “inhibit very well”. Also, the “proliferation (3H-thymidine incorporation)” value in assay [3] (setting [6]) is “no difference”. In addition, in assay [3] (SPL of pre-treated mice), the GM-CSF production entry is “less”, the IFN-γ production result is “less”, the IL-17 production entry was “less” and the cytokine production entry is “inhibit very well”.
In the case of “TWTTCQSIAFPSKTSASIGSLCADARMY-NH2 (cysteine pairing not given here) [TWTT-28, long peptide from a hydrophilic domain of PLP, residues 179-206]”, the “response in the in vivo study” value in assay [1] was “respond”. Besides, in assay [2], the “response in the in vitro study” value is “respond”. Moreover, the “proliferation (3H-thymidine incorporation)” value in assay [3] (setting [5]) and in assay [3] (setting [6]) was “inhibit very well” in each case. Further, the cytokine production result in assay [3] (LNC of pre-treated mice) and in assay [3] (SPL of pre-treated mice) was “inhibit very well” throughout.
Take “VLPWNAFPGKVCGSN [POP-22, 15-mer overlapping peptide spanning GVLP-28]”: the identification as apitope entry in the assay with HLA-DRB1*1501 (15-mers spanning GVLP-28, TWTT-28 specific hybridomas from DR2 mice (so in the source)) is recorded as “identified as an apitope”. Further, in assay [3] (LNC of pre-treated mice), the IL-17 production result was “significant inhibition” and the “stimulation index of LNC proliferation” value was “decrease”.
